Assay results as given in patent publication US9249129B2, “Morpholino substituted urea derivatives as mTOR inhibitors” (CELLZOME LIMITED, priority 2010, dated 2016).

What was measured:
Assay in all cases: kinobeads assay with mass spectrometry detection of kinases (kinase selectivity profile)
Type in all cases: binding
kinases (kinome) [1] = target: T1, kinases (kinome) (Homo sapiens, UniProt O15197); conditions: EphB6 (TK), IPI00005222
T1 construct: determined in kinobeads assays with mass spectrometry detection of kinases as described previously; endogenous in cells; host or cells: cell lysate
T1 sequence (O15197 32-1021): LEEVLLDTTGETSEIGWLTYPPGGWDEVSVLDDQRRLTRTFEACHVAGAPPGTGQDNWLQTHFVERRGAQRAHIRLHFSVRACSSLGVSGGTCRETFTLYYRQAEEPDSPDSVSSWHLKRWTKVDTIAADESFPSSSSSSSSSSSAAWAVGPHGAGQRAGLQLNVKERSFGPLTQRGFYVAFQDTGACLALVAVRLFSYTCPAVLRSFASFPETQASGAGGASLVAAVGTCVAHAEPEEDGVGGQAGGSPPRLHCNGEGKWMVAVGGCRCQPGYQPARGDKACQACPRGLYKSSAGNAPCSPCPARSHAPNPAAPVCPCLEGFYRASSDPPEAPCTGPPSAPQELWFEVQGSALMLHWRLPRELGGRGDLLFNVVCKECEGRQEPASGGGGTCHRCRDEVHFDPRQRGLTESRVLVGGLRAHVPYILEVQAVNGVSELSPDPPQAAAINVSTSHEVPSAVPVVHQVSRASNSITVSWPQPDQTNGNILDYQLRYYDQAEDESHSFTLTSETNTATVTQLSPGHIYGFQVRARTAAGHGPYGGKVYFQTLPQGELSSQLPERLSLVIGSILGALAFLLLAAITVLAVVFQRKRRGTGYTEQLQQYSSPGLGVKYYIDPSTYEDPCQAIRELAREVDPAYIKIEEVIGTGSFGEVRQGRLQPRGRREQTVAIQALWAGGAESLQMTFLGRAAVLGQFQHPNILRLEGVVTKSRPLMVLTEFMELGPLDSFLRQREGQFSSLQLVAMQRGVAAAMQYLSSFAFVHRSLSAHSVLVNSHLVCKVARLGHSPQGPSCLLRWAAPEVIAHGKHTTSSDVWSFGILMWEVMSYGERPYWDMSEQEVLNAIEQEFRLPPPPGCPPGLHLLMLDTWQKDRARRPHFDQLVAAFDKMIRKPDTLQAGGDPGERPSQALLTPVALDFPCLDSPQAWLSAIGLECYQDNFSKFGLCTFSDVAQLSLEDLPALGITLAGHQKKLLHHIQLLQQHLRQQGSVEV
From the text: (§1) The protein kinase complement of the human genome (the kinome) was described previously (Manning et al., 2002. Science 298(5600):1912-1934). Sequence accession numbers are defined by the International Protein Index (IPI) (Kersey et al., 2004. Proteomics 4(7):1985-1988).

kinases (kinome) [2] = target: T2, kinases (kinome) (Homo sapiens, UniProt Q16584); conditions: MLK3 (TKL), IPI00000977
T2 construct: determined in kinobeads assays with mass spectrometry detection of kinases as described previously; endogenous in cells; host or cells: cell lysate
From the text: as §1

kinases (kinome) [3] = target: T3, kinases (kinome) (Homo sapiens, UniProt Q9BYT3); conditions: STK33 (CAMK), IPI00302351
T3 construct: determined in kinobeads assays with mass spectrometry detection of kinases as described previously; endogenous in cells; host or cells: cell lysate
From the text: as §1

kinases (kinome) [4] = target: T4, kinases (kinome) (Homo sapiens, UniProt Q96L34); conditions: MARK4 (CAMK), IPI00064797
T4 construct: determined in kinobeads assays with mass spectrometry detection of kinases as described previously; endogenous in cells; host or cells: cell lysate
T4 sequence (Q96L34 1-752): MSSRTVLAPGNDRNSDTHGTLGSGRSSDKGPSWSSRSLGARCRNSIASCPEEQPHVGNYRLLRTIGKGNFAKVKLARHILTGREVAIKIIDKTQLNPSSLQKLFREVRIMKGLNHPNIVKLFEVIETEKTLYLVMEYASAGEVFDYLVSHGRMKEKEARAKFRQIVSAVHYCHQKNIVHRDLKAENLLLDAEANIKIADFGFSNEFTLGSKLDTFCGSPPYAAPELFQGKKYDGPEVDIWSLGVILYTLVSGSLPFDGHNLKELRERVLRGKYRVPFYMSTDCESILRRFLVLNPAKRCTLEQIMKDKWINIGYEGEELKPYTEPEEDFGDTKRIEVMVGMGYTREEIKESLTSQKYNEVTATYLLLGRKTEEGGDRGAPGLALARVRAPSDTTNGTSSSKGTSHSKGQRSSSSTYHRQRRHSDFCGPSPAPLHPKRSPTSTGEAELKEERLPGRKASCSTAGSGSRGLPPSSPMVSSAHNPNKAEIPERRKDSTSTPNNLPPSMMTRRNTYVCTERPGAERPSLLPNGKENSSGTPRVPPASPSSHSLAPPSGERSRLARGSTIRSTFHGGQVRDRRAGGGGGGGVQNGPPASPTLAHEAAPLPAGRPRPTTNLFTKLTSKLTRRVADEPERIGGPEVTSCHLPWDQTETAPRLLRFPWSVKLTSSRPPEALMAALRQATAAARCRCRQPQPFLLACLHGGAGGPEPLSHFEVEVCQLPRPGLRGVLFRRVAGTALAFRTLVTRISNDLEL
From the text: as §1

kinases (kinome) [5] = target: T5, kinases (kinome) (Homo sapiens, UniProt Q8NEB9); conditions: PIK3C3 (Lipid Kinase), IPI00873758
T5 construct: determined in kinobeads assays with mass spectrometry detection of kinases as described previously; endogenous in cells; host or cells: cell lysate
From the text: as §1

kinases (kinome) [6] = target: T6, kinases (kinome) (Homo sapiens, UniProt Q8N5S9); conditions: CaMKK1 (Other), IPI00792960
T6 construct: determined in kinobeads assays with mass spectrometry detection of kinases as described previously; endogenous in cells; host or cells: cell lysate
From the text: as §1

kinases (kinome) [7] = target: T7, kinases (kinome) (Homo sapiens, UniProt Q05655); conditions: PKCd (AGC), IPI00329236
T7 construct: determined in kinobeads assays with mass spectrometry detection of kinases as described previously; endogenous in cells; host or cells: cell lysate
From the text: as §1

kinases (kinome) [8] = target: T8, kinases (kinome) (Homo sapiens, UniProt Q16566); conditions: CaMK4 (CAMK), IPI00430411
T8 construct: determined in kinobeads assays with mass spectrometry detection of kinases as described previously; endogenous in cells; host or cells: cell lysate
T8 sequence (Q16566 1-473): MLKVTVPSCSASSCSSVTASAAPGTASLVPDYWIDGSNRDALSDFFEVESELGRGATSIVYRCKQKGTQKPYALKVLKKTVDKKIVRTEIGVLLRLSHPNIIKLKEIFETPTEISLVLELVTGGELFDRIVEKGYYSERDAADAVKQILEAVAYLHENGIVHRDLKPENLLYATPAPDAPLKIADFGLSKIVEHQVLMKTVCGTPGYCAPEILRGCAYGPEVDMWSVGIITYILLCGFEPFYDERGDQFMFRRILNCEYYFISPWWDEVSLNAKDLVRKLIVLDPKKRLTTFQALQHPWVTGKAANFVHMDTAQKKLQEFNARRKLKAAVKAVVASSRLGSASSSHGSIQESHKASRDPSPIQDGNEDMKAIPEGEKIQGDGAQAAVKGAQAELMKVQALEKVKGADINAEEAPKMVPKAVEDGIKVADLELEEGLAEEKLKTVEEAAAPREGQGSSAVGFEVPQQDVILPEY
From the text: as §1

kinases (kinome) [9] = target: T9, kinases (kinome) (Homo sapiens, UniProt P36894); conditions: BMPR1A (TKL), IPI00005731
T9 construct: determined in kinobeads assays with mass spectrometry detection of kinases as described previously; endogenous in cells; host or cells: cell lysate
From the text: as §1

Measured: IC50

T6 sequence (Q8N5S9 whole entry): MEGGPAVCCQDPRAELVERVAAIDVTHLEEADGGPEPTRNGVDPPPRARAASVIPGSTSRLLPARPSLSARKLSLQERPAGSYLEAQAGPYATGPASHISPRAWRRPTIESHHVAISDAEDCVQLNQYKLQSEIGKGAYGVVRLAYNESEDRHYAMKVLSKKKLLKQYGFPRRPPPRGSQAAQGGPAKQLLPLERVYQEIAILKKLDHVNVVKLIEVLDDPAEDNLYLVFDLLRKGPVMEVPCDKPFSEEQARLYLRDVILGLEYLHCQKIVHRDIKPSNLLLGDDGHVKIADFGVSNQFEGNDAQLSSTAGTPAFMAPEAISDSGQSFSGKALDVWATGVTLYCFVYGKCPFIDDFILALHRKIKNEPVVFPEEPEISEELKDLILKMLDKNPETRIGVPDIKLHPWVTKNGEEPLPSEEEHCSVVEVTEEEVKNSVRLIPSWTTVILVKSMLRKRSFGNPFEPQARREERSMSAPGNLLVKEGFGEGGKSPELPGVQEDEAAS
T9 sequence (P36894 24-532): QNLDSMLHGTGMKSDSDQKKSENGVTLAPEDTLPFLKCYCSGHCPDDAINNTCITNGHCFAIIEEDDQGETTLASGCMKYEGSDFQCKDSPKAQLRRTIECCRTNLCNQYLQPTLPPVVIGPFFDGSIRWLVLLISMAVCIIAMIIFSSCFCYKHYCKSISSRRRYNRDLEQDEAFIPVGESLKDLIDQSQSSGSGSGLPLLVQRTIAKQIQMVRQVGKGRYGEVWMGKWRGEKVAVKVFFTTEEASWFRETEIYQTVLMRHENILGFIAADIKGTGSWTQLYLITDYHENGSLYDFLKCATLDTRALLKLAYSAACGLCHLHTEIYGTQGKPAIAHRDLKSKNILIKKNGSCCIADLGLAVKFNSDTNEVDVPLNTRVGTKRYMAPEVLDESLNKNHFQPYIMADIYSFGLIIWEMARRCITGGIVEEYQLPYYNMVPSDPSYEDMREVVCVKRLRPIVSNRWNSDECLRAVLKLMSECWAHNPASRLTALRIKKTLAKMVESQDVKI
T3 sequence (Q9BYT3 whole entry): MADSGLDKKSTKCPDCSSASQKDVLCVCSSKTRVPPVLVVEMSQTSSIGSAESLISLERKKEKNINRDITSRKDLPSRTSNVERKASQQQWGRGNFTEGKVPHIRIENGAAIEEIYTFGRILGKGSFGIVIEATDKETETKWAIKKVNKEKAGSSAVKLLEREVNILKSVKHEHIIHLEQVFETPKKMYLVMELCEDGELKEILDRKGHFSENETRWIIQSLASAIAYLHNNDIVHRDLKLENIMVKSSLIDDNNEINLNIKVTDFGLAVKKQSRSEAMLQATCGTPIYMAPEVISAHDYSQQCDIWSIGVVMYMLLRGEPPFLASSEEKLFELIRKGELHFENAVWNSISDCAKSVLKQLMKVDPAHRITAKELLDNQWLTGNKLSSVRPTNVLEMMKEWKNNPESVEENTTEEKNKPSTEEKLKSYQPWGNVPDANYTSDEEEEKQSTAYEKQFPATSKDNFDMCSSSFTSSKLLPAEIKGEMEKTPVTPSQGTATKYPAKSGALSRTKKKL
T5 sequence (Q8NEB9 whole entry): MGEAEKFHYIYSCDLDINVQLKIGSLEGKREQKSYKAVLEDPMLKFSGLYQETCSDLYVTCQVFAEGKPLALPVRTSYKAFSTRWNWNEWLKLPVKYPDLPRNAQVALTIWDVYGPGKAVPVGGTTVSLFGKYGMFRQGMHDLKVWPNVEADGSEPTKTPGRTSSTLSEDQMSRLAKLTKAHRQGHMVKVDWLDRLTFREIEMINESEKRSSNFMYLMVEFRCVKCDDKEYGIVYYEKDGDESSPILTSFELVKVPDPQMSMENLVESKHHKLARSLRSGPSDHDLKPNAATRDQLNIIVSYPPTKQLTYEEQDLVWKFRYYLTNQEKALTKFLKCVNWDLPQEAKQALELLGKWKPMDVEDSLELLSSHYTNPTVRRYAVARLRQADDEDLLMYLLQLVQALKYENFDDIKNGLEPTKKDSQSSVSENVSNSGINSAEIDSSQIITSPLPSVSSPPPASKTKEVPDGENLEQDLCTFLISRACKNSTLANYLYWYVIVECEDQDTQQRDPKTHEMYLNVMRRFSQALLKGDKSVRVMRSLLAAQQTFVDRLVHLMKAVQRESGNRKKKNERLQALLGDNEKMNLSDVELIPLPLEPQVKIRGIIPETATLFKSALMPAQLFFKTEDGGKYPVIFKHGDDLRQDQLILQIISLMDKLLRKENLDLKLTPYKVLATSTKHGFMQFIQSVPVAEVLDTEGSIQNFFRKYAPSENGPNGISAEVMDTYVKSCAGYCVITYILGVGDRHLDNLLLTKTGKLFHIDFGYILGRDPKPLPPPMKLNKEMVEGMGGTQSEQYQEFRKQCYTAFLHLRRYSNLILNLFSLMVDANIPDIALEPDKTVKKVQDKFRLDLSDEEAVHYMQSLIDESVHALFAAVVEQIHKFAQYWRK
T7 sequence (Q05655 whole entry): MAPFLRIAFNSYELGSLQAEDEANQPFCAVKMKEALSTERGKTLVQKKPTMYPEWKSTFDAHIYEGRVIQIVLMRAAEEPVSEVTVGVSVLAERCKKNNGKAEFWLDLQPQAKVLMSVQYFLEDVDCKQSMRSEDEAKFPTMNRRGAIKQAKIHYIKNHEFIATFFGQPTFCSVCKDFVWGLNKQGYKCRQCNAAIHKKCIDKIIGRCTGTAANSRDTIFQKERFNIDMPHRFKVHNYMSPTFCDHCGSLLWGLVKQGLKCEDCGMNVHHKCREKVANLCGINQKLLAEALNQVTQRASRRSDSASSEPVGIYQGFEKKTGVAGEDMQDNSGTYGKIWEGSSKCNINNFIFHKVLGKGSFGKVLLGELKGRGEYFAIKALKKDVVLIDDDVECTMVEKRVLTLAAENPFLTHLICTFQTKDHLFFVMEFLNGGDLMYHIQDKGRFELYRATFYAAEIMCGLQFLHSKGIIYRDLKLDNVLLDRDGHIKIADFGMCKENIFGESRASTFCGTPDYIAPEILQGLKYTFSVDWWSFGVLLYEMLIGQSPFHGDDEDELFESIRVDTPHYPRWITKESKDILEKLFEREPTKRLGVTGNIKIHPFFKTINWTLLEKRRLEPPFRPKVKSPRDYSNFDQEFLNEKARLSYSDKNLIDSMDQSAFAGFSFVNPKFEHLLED
T2 sequence (Q16584 whole entry): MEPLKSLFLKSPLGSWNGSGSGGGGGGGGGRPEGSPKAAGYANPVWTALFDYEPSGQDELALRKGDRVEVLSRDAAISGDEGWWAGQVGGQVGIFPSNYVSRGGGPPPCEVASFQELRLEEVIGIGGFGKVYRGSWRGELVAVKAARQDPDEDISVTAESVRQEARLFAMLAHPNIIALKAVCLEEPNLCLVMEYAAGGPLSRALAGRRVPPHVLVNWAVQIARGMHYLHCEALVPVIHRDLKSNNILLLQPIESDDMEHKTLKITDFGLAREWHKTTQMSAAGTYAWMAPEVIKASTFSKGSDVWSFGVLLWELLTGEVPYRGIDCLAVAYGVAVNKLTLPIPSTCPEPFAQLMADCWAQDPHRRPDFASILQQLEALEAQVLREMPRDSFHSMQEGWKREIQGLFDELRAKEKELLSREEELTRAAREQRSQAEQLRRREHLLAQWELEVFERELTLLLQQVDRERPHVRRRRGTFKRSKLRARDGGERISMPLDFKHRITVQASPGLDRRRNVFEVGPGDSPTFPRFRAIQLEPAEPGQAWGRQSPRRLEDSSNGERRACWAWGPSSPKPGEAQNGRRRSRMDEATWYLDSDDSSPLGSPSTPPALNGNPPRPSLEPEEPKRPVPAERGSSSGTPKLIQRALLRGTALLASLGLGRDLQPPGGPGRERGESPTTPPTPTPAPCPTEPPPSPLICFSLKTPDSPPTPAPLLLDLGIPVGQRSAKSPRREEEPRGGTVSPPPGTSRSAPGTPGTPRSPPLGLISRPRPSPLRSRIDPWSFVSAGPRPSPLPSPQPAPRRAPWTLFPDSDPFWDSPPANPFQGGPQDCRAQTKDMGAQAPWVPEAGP

C[C@H]1COCCN1c1nc(-c2ccc(NC(=O)NC3CC3)cc2)cc(-c2ccccc2S(C)(=O)=O)n1 [Example 4, (S)-1-cyclopropyl-3-(4-(2-(3-methylmorpholino)-6-(2-(methylsulfonyl)phenyl)pyrimidin-4-yl)phenyl)urea]
not listed: kinases (kinome) [9]
> 10 µM: all other assays above

C[C@H]1COCCN1c1cc(-c2ccccc2S(C)(=O)=O)nc(-c2ccc(NC(=O)NC3CC3)cc2)n1 [Example 6, (S)-1-cyclopropyl-3-(4-(4-(3-methylmorpholino)-6-(2-(methylsulfonyl)phenyl)pyrimidin-2-yl)phenyl)urea]
> 10 µM: kinases (kinome) [1] | kinases (kinome) [9] | kinases (kinome) [2] | kinases (kinome) [4] | kinases (kinome) [8]

CCNC(=O)Nc1ccc(-c2cc(-c3ccccc3C#N)nc(N3CCOC[C@@H]3C)n2)cc1 [Example 8, (S)-1-(4-(6-(2-cyanophenyl)-2-(3-methylmorpholino)pyrimidin-4-yl)phenyl)-3-ethylurea]
> 10 µM: kinases (kinome) [9] | kinases (kinome) [2] | kinases (kinome) [4] | kinases (kinome) [8]

C[C@H]1COCCN1c1nc(-c2ccc(NC(=O)NC3CC3)cc2)cc(-c2cc(F)ccc2S(C)(=O)=O)n1 [Example 40, (S)-1-cyclopropyl-3-(4-(6-(5-fluoro-2-(methylsulfonyl)phenyl)-2-(3-methylmorpholino)pyrimidin-4-yl)phenyl)urea]
> 10 µM: all assays above

C[C@H]1COCCN1c1cc(-c2ccccn2)nc(-c2ccc(NC(=O)NCCO)cc2)n1 [Example 43, (S)-1-(2-hydroxyethyl)-3-(4-(4-(3-methylmorpholino)-6-(pyridin-2-yl)pyrimidin-2-yl)phenyl)urea]
not listed: kinases (kinome) [1] | kinases (kinome) [3] | kinases (kinome) [9]
> 10 µM: all other assays above

C[C@H]1COCCN1c1nc(-c2ccc(NC(=O)NC3CC3)cc2)cc(-c2cccnc2S(C)(=O)=O)n1 [Example 46, (S)-1-cyclopropyl-3-(4-(2-(3-methylmorpholino)-6-(2-(methylsulfonyl)pyridin-3-yl)pyrimidin-4-yl)phenyl)urea]
not listed: kinases (kinome) [2] | kinases (kinome) [8]
> 10 µM: all other assays above

C[C@H]1COCCN1c1nc(-c2ccc(NC(=O)N[C@H]3CCC[C@@H]3O)cc2)cc(-c2cc(F)ccc2S(C)(=O)=O)n1 [Example 76, 1-(4-(6-(5-fluoro-2-(methylsulfonyl)phenyl)-2-((S)-3-methylmorpholino)pyrimidin-4-yl)phenyl)-3-((1S,2S)-2-hydroxycyclopentyl)urea]
> 10 µM: kinases (kinome) [9] | kinases (kinome) [4] | kinases (kinome) [5] | kinases (kinome) [6] | kinases (kinome) [7]
